Data published in patent US20210353621A1 (priority 2020, published 2021).
Like-named read-outs stand apart in the source and are kept apart here.

Key:
[1] = test system: enzalutamide resistant VCaP xenograft; assay: Enzalutamide-resistant VCaP xenograft model; assay type: in vivo
[2] = Phase I clinical trial pharmacokinetics; conditions: male, human, in vivo, po, once daily
From the text: (§1) A traditional 3+3 dose escalation design was implemented. […] Dose increases were dependent upon toxicities.

[3] = Phase I dose escalation safety in mCRPC patients
From the text: as §1

in vivo = conditions: dog, po
[4] = 28-day GLP toxicology study in rats
BCRP = biological target: T1, BCRP (Homo sapiens, UniProt Q9UNQ0); assay: In vitro transporter inhibition, BCRP
T1 sequence (Q9UNQ0 1-655): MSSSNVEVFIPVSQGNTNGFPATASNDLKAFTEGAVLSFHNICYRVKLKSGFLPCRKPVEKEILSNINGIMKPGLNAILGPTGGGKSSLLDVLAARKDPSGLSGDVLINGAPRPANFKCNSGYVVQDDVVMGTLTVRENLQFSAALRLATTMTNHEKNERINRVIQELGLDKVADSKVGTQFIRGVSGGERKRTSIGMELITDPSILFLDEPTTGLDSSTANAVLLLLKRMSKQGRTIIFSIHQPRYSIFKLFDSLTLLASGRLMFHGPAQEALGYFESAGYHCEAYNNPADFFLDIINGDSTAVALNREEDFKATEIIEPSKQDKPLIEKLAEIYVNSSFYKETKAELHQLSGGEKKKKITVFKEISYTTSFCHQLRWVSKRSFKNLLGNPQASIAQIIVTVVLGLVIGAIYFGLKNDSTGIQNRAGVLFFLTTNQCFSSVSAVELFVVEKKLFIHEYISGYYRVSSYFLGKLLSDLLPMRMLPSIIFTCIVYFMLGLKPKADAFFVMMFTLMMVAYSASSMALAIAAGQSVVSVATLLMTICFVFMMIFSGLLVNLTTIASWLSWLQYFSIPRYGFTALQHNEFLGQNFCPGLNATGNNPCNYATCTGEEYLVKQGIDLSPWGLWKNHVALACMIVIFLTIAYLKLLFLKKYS

OATP1B1 = OATP1B1 (Homo sapiens, UniProt Q9Y6L6); assay: In vitro transporter inhibition, OATP1B1
Chain of OATP1B1 (Q9Y6L6 whole entry): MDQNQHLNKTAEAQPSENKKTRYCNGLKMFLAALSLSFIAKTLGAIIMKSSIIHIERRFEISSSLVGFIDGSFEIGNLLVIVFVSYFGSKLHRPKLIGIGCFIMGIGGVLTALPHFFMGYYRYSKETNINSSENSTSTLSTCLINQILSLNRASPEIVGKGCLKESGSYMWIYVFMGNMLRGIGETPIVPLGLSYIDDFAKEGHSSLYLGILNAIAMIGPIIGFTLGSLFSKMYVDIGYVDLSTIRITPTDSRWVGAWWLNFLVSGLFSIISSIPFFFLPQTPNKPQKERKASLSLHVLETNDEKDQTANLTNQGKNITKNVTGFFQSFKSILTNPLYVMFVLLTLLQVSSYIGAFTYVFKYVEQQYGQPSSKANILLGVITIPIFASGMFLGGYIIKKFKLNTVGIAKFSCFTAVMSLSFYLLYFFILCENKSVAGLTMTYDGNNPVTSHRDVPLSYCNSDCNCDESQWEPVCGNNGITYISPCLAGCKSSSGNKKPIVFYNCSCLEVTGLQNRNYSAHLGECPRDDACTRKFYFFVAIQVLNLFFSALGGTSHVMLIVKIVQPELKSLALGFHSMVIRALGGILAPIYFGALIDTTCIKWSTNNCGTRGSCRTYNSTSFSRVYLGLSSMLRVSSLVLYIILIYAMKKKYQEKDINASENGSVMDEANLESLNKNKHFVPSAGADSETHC

OATP1B3 = OATP1B3 (Homo sapiens, UniProt Q9NPD5); assay: In vitro transporter inhibition, OATP1B3
Chain of OATP1B3 (Q9NPD5 whole entry): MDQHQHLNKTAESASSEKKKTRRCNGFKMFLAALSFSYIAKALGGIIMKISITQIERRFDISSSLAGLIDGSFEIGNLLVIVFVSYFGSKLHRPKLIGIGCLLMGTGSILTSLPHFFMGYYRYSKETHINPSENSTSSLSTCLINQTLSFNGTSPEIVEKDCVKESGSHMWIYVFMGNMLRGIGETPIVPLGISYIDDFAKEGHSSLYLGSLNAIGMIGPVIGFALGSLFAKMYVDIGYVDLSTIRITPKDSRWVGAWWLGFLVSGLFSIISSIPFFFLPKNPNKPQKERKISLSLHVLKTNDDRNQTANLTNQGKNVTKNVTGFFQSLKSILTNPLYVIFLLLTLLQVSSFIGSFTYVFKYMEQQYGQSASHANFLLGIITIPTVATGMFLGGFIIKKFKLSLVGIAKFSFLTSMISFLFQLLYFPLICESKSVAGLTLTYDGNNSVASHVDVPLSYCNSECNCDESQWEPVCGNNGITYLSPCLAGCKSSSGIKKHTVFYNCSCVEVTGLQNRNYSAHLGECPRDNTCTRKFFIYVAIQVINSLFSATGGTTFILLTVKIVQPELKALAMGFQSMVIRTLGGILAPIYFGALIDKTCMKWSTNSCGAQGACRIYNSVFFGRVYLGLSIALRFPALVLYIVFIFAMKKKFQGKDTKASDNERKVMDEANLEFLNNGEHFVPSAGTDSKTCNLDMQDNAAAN

[5] = Preclinical pharmacokinetics, oral once daily (Table 1); conditions: total drug concentrations
[6] = Exploratory non-GLP assay of rosuvastatin in retained patient plasma samples; assay type: in vivo, human; conditions: 2 patients taking rosuvastatin concurrently with Compound (I-g)
From the text: An exploratory, non-GLP method was developed to analyze for rosuvastatin and its major metabolite N-desmethyl rosuvastatin in retained pharmacokinetic plasma samples from the 2 patients.

[7] = 280 mg QD patient with rosuvastatin 20 mg QD, level before decrease
[8] = same patient, within 14 days after Compound (I-g) and rosuvastatin were discontinued
[9] = 3 and 10 μM, preliminary study, solubility limitation

Q: Which tumor growth inhibition ([1]; 3 mg/kg oral once daily, compared to a control group) does the source give for N#Cc1ccc(O[C@H]2CC[C@H](NC(=O)c3ccc(N4CCC(CN5CCN(c6cc7c(cc6F)C(=O)N(C6CCC(=O)NC6=O)C7=O)CC5)CC4)nn3)CC2)cc1Cl (stereo partly shown) [Compound (I-g)] here?
A: 70%

Q: And the “AR in enzalutamide-resistant VCaP tumors (Western blot)” value ([1]; 10 mg/kg and 3 mg/kg oral, once daily, FIG. 6)?
A: reduction of AR

Q: And the lowest efficacious dose ([1]; oral, once daily, enzalutamide-resistant VCaP model)?
A: 3 mg/kg

Q: What about the AUC(0-t) ([2]; 35 mg, Mean Day 1 AUC0-24, 35 mg oral) of the same compound?
A: 160 ng·h/mL

Q: And the Cmax ([2]; 35 mg, Mean Day 1 Cmax, 35 mg oral)?
A: 11.1 ng/mL

Q: What about the AUC(0-t) ([2]; 35 mg, Mean Day 15 AUC0-24, 35 mg oral, imputed 24 hours values) of the same compound?
A: 1700 ng·h/mL

Q: And the Cmax ([2]; 35 mg, Mean Day 15 Cmax, 35 mg oral)?
A: 83 ng/mL

Q: And the AUC(0-t) ([2]; 70 mg, Mean Day 1 AUC0-24, 70 mg oral)?
A: 300 ng·h/mL

Q: What about the Cmax ([2]; 70 mg, Mean Day 1 Cmax, 70 mg oral) of the same compound?
A: 19.6 ng/mL

Q: And the AUC(0-t) ([2]; 70 mg, Mean Day 15 AUC0-24, 70 mg oral, imputed 24 hours values)?
A: 2540 ng·h/mL

Q: And the Cmax ([2]; 70 mg, Mean Day 15 Cmax, 70 mg oral)?
A: 141 ng/mL

Q: And the AUC(0-t) ([2]; 140 mg, Mean Day 1 AUC0-24, 140 mg oral)?
A: 865 ng·h/mL

Q: And the Cmax ([2]; 140 mg, Mean Day 1 Cmax, 140 mg oral)?
A: 54 ng/mL

Q: What about the AUC(0-t) ([2]; 140 mg, Mean Day 15 AUC0-24, 140 mg oral, imputed 24 hours values) of the same compound?
A: 5020 ng·h/mL

Q: What about the Cmax ([2]; 140 mg, Mean Day 15 Cmax, 140 mg oral) of the same compound?
A: 353 ng/mL

Q: What about the adverse events ([3]; 35 mg/day cohort) of the same compound?
A: no adverse events at grades 2, 3 or 4 were observed

Q: And the dose limiting toxicity ([3]; 35 mg/day cohort)?
A: no dose limiting toxicity was observed

Q: And the “AST/ALT elevation on second re-challenge” value ([3]; 70 mg QD following discontinuation of rosuvastatin)?
A: no other AST/ALT elevation has been observed for 90 days

Q: And the “AST/ALT elevation on re-challenge” value ([3]; 70 mg QD while continuing rosuvastatin)?
A: second instance of Grade 3 AST/ALT elevation

Q: And the adverse events ([3]; 70 mg/day cohort)?
A: no adverse events at grades 2, 3 or 4 have been observed, with the exception of grade 3 anemia that was unrelated to the administration of compound (I-g)

Q: What about the dose limiting toxicity ([3]; 70 mg/day cohort) of the same compound?
A: no dose limiting toxicity has been observed

Q: What about the adverse events ([3]; 140 mg/day cohort) of the same compound?
A: no adverse events at grades 2, 3 or 4 have been observed

Q: And the dose limiting toxicity ([3]; 140 mg/day cohort)?
A: no dose limiting toxicity has been observed

Q: What about the dose limiting toxicity ([3]; 280 mg QD cohort (3 patients), patient taking rosuvastatin 20 mg QD) of the same compound?
A: one patient experienced dose limiting toxicity (DLT) of Grade 4 AST/ALT elevation followed by Grade 4 acute renal failure

Q: And the ALT level [3, 7]?
A: 4116 U/L

Q: What about the AST level [3, 7] of the same compound?
A: 4901 U/L

Q: What about the overall tolerability ([3]; 18 patients, 35 mg to 280 mg QD) of the same compound?
A: well tolerated

Q: And the “time to resolution of Grade 3 AST/ALT elevation to Grade 1” value ([3]; after dose interruption, 140 mg QD patient with rosuvastatin 40 mg QD)?
A: ≤ 5 days

Q: And the ALT level [3, 8]?
A: 83 U/L

Q: What about the AST level [3, 8] of the same compound?
A: 280 U/L

Q: What about the “histopathology correlated with AST/ALT elevations” value (dogs) of the same compound?
A: No correlated histopathology changes were observed

Q: What about the gastrointestinal alterations (dogs, 3, 10 or 30 mg/kg oral once daily) of the same compound?
A: observed at all dose levels (including vehicle alone)

Q: What about the “AST and ALT” value (dogs, 10 or 30 mg/kg/day, study days 14 and 29) of the same compound?
A: reversible elevations of AST and ALT

Q: And the renal impairment (dogs, 28-day GLP study)?
A: No evidence of renal impairment was observed

Q: And the prostate weights (male dogs)?
A: decreased prostate weights

Q: What about the MTD at 28 days (in vivo) of the same compound?
A: < 30 mg/kg

Q: And the “body weight and food consumption” value ([4]; 80 mg/kg female rat cohort)?
A: lost body weight and consumed less food

Q: What about the “reversibility of findings in male high-dose rats” value ([4]; male high-dose rats, 14-day recovery) of the same compound?
A: fully reversible (liver hypertrophy, femur physis thickening)

Q: What about the prostate weights ([4]; male rats) of the same compound?
A: decreased prostate weights

Q: What about the renal impairment ([4]; rats, 28-day GLP study) of the same compound?
A: No evidence of renal impairment was observed

Q: And the tolerability ([4]; rats, oral once daily, 28 days, males 20, 60, 120 mg/kg, females 20, 40, 120 mg/kg)?
A: well tolerated at all doses, with the exception of the 80 mg/kg female cohort

Q: And the IC50 (BCRP)?
A: > 10 µM

Q: And the “inhibition of BCRP” value (BCRP; [9])?
A: no inhibition

Q: And the IC50 (OATP1B1)?
A: > 10 µM

Q: What about the “inhibition of OATP1B1” value (OATP1B1; [9]) of the same compound?
A: no inhibition

Q: What about the IC50 (OATP1B3) of the same compound?
A: > 10 µM

Q: What about the “inhibition of OATP1B3” value (OATP1B3; [9]) of the same compound?
A: no inhibition

Q: And the “Mean AUC0-24” value ([5]; 1 mg/kg oral)?
A: 3628 ng·h/mL

Q: What about the “Mean Cmax” value ([5]; 1 mg/kg oral) of the same compound?
A: 224 ng/mL

Q: What about the “Mean AUC0-24” value ([5]; 3 mg/kg oral) of the same compound?
A: 8106 ng·h/mL

Q: What about the “Mean Cmax” value ([5]; 3 mg/kg oral) of the same compound?
A: 507 ng/mL

Q: Which rosuvastatin plasma concentrations [6] does the source give for CC(C)c1nc(N(C)S(C)(=O)=O)nc(-c2ccc(F)cc2)c1/C=C/[C@@H](O)C[C@@H](O)CC(=O)O [Rosuvastatin, rosuvastatin] here?
A: increased concurrently with the increase in AST/ALT levels in both patients
